Patent US20110178118A1, “PALONOSETRON FOR THE TREATMENT OF CHEMOTHERAPY INDUCED EMESES” (priority 2002, published 2011)

System: cisplatin-induced emesis
Experiment: Duration of action in cisplatin-treated dogs
Assay type: in vivo
Details: 0.04 mg/kg IV
Procedure: Mean numbers of episodes were computed and the statistical significance of differences between treatment groups were determined with Dunnett's t test. Solutions of palonosetron and comparator drugs (ondansetron and granisetron) were prepared in distilled water. Vehicle control groups received distilled water.

## CN1C2CCCC1CC(NC(=O)c1nn(C)c3ccccc13)C2 (centres unmarked) [Granisetron]
1 to 12 hours before cisplatin
  antiemetic effect in duration of action experiments: without antiemetic effect
1 hr pre-cisplatin 3.0 mg/kg IV
  Emetic Episodes (mean ± SD): 12.33 ± 4.32
2 hr pre-cisplatin 3.0 mg/kg IV
  Emetic Episodes (mean ± SD): 9.67 ± 4.46
4 hr pre-cisplatin 3.0 mg/kg IV
  Emetic Episodes (mean ± SD): 13.83 ± 7.25
6 hr pre-cisplatin 3.0 mg/kg IV
  Emetic Episodes (mean ± SD): 21.33 ± 9.54
8 hr pre-cisplatin 3.0 mg/kg IV
  Emetic Episodes (mean ± SD): 14.67 ± 8.69
10 hr pre-cisplatin 3.0 mg/kg IV
  Emetic Episodes (mean ± SD): 23.00 ± 5.87
12 hr pre-cisplatin 3.0 mg/kg IV
  Emetic Episodes (mean ± SD): 15.67 ± 6.28
